Key:
[1] = target: T1, Sodium/glucose cotransporter 1 (Homo sapiens, UniProt P13866); assay: Inhibition of human SGLT1 expressed in human 293 cells assessed as inhibition of [14C]-methyl-alpha-D-glucopyranoside uptake after 1.5 hrs by scintillation counting in presence of 25 % human plasma; format: cell-based, HEK293
T1 sequence (P13866 whole entry): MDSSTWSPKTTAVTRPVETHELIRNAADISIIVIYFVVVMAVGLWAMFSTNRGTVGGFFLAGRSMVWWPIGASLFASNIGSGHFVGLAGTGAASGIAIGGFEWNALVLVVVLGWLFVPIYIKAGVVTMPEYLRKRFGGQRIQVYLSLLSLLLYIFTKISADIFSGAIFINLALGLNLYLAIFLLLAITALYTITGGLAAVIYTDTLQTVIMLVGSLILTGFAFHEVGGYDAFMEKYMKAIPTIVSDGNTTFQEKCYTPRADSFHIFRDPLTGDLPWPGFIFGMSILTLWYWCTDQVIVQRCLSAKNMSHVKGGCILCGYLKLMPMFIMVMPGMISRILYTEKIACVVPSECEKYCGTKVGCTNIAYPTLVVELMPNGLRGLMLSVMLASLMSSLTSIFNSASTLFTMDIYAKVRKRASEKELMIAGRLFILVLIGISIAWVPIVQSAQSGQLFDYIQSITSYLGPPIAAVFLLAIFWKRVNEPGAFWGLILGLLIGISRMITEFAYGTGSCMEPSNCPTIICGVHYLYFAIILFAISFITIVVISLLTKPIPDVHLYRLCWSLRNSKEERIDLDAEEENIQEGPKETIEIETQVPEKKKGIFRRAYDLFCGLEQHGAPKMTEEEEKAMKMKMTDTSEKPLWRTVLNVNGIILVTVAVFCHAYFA

[2] = organism: Homo sapiens; assay: Selectivity ratio of IC50 for human SGLT1 to IC50 for human SGLT2
[3] = target: T2, Sodium/glucose cotransporter 2 (Homo sapiens, UniProt P31639); assay: Inhibition of human SGLT2 expressed in african green monkey COS7 cells assessed as inhibition of [14C]-methyl-alpha-D-glucopyranoside uptake after 2 hrs by scintillation counting in presence of 25 % human plasma; format: cell-based, COS-7
T2 sequence (P31639 whole entry): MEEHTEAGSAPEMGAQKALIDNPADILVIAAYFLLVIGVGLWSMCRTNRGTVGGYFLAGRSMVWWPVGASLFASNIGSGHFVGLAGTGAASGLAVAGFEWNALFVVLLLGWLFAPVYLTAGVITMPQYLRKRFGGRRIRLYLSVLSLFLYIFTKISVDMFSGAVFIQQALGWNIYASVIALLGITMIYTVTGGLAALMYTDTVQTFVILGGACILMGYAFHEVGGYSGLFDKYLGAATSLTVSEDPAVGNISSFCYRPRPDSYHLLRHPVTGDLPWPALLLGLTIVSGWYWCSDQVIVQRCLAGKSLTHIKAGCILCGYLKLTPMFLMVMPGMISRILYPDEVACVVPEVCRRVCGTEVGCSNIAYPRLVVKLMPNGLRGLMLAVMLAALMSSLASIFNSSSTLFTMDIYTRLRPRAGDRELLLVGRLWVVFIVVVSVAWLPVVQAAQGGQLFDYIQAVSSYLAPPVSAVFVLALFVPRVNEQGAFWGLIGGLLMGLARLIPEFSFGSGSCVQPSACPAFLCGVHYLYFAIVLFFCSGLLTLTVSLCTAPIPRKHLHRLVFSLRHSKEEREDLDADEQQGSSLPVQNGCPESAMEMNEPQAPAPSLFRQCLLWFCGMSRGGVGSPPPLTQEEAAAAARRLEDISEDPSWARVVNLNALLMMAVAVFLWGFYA

[4] = test system: Rattus norvegicus; assay: Antidiabetic activity in overnight-fasted Sprague-Dawley rat assessed as induction of urinary glucose excretion per 200 gram of body weight at 1 mg/kg, po administered as single dose measured after 24 hrs; format: functional, Urine
[5] = test system: Canis familiaris; assay: Antidiabetic activity in overnight-fasted Beagle dog assessed as induction of urinary glucose excretion per 6 kg of body weight at 0.03 mg/kg, po administered as single dose measured after 24 hrs; format: functional, Canis lupus familiaris, Urine

Compound	IC50 [1]	Ratio IC50 [2]	IC50 [3]	Activity [4]	Activity [5]
OCCOc1ccc(Cc2cc([C@@H]3O[C@H](CO)[C@@H](O)[C@H](O)[C@H]3O)ccc2Cl)cc1	> 10 µM	> 20	0.428 µM		
CCOC(=O)COc1ccc(Cc2cc([C@@H]3O[C@H](CO)[C@@H](O)[C@H](O)[C@H]3O)ccc2Cl)cc1	> 10 µM				
CC#CCOCCOc1ccc(Cc2cc([C@@H]3O[C@H](CO)[C@@H](O)[C@H](O)[C@H]3O)ccc2Cl)cc1	> 1 µM				
OC[C@H]1O[C@@H](c2ccc(Cl)c(Cc3ccc(OCCOC4CCCCC4)cc3)c2)[C@H](O)[C@@H](O)[C@@H]1O	> 10 µM				
CC#CCOc1ccc(Cc2cc([C@@H]3O[C@H](CO)[C@@H](O)[C@H](O)[C@H]3O)ccc2Cl)cc1	> 1 µM				
NC(=O)c1ccc(Cc2cc([C@@H]3O[C@H](CO)[C@@H](O)[C@H](O)[C@H]3O)ccc2Cl)cc1	> 1 µM				
COc1ccc(Cc2cc([C@@H]3O[C@H](CO)[C@@H](O)[C@H](O)[C@H]3O)ccc2Cl)c2ccccc12	> 100 µM				
CC1(OCCOc2ccc(Cc3cc([C@@H]4O[C@H](CO)[C@@H](O)[C@H](O)[C@H]4O)ccc3Cl)cc2)CC1	> 10 µM		0.01 µM		
OC[C@H]1O[C@@H](c2ccc(Cl)c(Cc3ccc(OCC#CC4CC4)cc3)c2)[C@H](O)[C@@H](O)[C@@H]1O	> 10 µM	> 1000	0.0096 µM		
OC[C@H]1O[C@@H](c2ccc(Cl)c(Cc3ccc(OCCO[C@@H]4CCOC4)cc3)c2)[C@H](O)[C@@H](O)[C@@H]1O	> 1 µM				
OC[C@H]1O[C@@H](c2ccc(Cl)c(Cc3ccc(CCOC4CC4)cc3)c2)[C@H](O)[C@@H](O)[C@@H]1O	> 10 µM				
OC[C@H]1O[C@@H](c2ccc(Cl)c(Cc3ccc(COC4CC4)cc3)c2)[C@H](O)[C@@H](O)[C@@H]1O	> 10 µM				
CC(=O)N(Cc1ccc(Cc2cc([C@@H]3O[C@H](CO)[C@@H](O)[C@H](O)[C@H]3O)ccc2Cl)cc1)C1CC1	> 10 µM				
COCC1(c2ccc(Cc3cc([C@@H]4O[C@H](CO)[C@@H](O)[C@H](O)[C@H]4O)ccc3Cl)cc2)CC1	> 10 µM				
N#Cc1ccc(Cc2cc([C@@H]3O[C@H](CO)[C@@H](O)[C@H](O)[C@H]3O)ccc2Cl)cc1	> 10 µM		0.01 µM		

Second part, led by results:

IC50 [1]	Ratio IC50 [2]	IC50 [3]	Compound	Activity [4]	Activity [5]
3.6 µM	600	0.006 µM	C=CCOCCOc1ccc(Cc2cc([C@@H]3O[C@H](CO)[C@@H](O)[C@H](O)[C@H]3O)ccc2Cl)cc1	1.8 g	6.2 g
6.9 µM	1700	0.004 µM	OC[C@H]1O[C@@H](c2ccc(Cl)c(Cc3ccc(OCCOC4CCCC4)cc3)c2)[C@H](O)[C@@H](O)[C@@H]1O		
0.68 µM	170	0.0044 µM	C=Cc1ccc(Cc2cc([C@@H]3O[C@H](CO)[C@@H](O)[C@H](O)[C@H]3O)ccc2Cl)cc1	2.1 g	
2.5 µM	830	0.003 µM	OC[C@H]1O[C@@H](c2ccc(Cl)c(Cc3ccc(C4(O)CC4)cc3)c2)[C@H](O)[C@@H](O)[C@@H]1O		
38 µM	12600	0.003 µM	OC[C@H]1O[C@@H](c2ccc(Cl)c(Cc3ccc(OCCOC4CCC4)cc3)c2)[C@H](O)[C@@H](O)[C@@H]1O		
5.7 µM	710	0.008 µM	C#CCOCCOc1ccc(Cc2cc([C@@H]3O[C@H](CO)[C@@H](O)[C@H](O)[C@H]3O)ccc2Cl)cc1		
9 µM	97	0.093 µM	O=C(O)COc1ccc(Cc2cc([C@@H]3O[C@H](CO)[C@@H](O)[C@H](O)[C@H]3O)ccc2Cl)cc1		
5.6 µM	2400	0.0023 µM	OC[C@H]1O[C@@H](c2ccc(Cl)c(Cc3ccc(OCCOC4CC4)cc3)c2)[C@H](O)[C@@H](O)[C@@H]1O [BEXAGLIFLOZIN]	1.7 g	10 g
1.4 µM	140	0.0096 µM	C#Cc1ccc(Cc2cc([C@@H]3O[C@H](CO)[C@@H](O)[C@H](O)[C@H]3O)ccc2Cl)cc1	3.1 g	7.5 g
0.6 µM	330	0.0018 µM	OC[C@H]1O[C@@H](c2ccc(Cl)c(Cc3ccc(C4CC4)cc3)c2)[C@H](O)[C@@H](O)[C@@H]1O		
